Laboratory results: US9925139B2, “Pharmaceutical compositions for acute glucocorticoid therapy” (ACUCORT AB, priority 2004, dated 2018)

How the values were obtained:
[1] = In vivo plasma cortisol profile in healthy volunteers with suppressed endogenous cortisol, oral mucosal administration; set-up: species or system human
Method: The in vivo experiments reported herein were carried out on healthy volunteers. At 6 pm and 11 pm the day before administration of the test composition, the endogenous cortisol secretion was suppressed by oral administration of 2 mg of betamethasone. The test composition was administered to healthy volunteers. The volunteers were in fasted state and were not allowed to take any food until noon. In the case a tablet is administered, it is ingested together with 200 ml of water. The test composition is administered between 8 am and 10 am on the day following the suppression of endogenous glucocorticoid secretion.
In vivo plasma profiles in humans, N=1 per composition
Dexamethasone suppression test, fasting state, otherwise as described in the paragraph denoted “Method”.
Two films were prepared essentially similar to Example 13—composition A. Film A contains 10 mg of hydrocortisone and film B contains 11.2 mg of hydrocortisone acetate.
The hydrocortisone compositions were tested in two human subjects after labial administration. The subjects had their endogenous glucocorticoid secretion suppressed by synthetic glucocorticoids. The plasma concentration of cortisol was monitored during 360 min after the labial administration, and the serum concentration time profiles from these two subjects are shown in FIGS. 6 and 7.
The compositions were tested after oral administration to two human subjects (see FIG. 8).

[2] = cited from earlier work; for Equivalent amount: dose equivalent for glucocorticoid therapy; for Hydrocortisone equivalent (1 mg of the glucocorticoid corresponds to the listed amount in mg of hydrocortisone): per 1 mg of the glucocorticoid

CC(=O)OCC(=O)[C@@]1(O)CC[C@H]2[C@@H]3CCC4=CC(=O)CC[C@]4(C)[C@H]3[C@@H](O)C[C@@]21C [hydrocortisone acetate]
Suitability for an immediate release composition (in vivo plasma profiles) ([1]; Example 11 thin-layer films, humans, N=1 per composition, fasting state, FIGS. 1-3): does not seem to be suitable for an immediate release composition

C[C@]12C=CC(=O)C=C1CC[C@@H]1[C@@H]2[C@@H](O)C[C@@]2(C)[C@H]1CC[C@]2(O)C(=O)CO [Prednisolone]
Equivalent amount [2]: 5 mg | Hydrocortisone equivalent (1 mg of the glucocorticoid corresponds to the listed amount in mg of hydrocortisone) [2]: 4 mg

C[C@]12CCC(=O)C=C1CC[C@@H]1[C@@H]2[C@@H](O)C[C@@]2(C)[C@H]1CC[C@]2(O)C(=O)CO [Hydrocortisone]
Time at which first measured plasma concentration was attained ([1]; Example 13 films, 10 mg hydrocortisone, labial administration, two human subjects): 10 to 15 min | Rate and extent of mucosal uptake ([1]; Example 13 films, 10 mg hydrocortisone, labial administration, two human subjects, FIGS. 6 and 7): high | Equivalent amount [2]: 20 mg | Hydrocortisone equivalent (1 mg of the glucocorticoid corresponds to the listed amount in mg of hydrocortisone) [2]: 1 mg

CC(=O)OCC(=O)[C@@]1(O)CC[C@H]2[C@@H]3CCC4=CC(=O)CC[C@]4(C)[C@H]3C(=O)C[C@@]21C [Cortisone acetate]
Equivalent amount [2]: 25 mg | Hydrocortisone equivalent (1 mg of the glucocorticoid corresponds to the listed amount in mg of hydrocortisone) [2]: 0.8 mg

C[C@@H]1C[C@H]2[C@@H]3C[C@H](F)C4=CC(=O)C=C[C@]4(C)[C@H]3[C@@H](O)C[C@]2(C)[C@@]1(O)C(=O)CO [Paramethasone]
Equivalent amount [2]: 2 mg | Hydrocortisone equivalent (1 mg of the glucocorticoid corresponds to the listed amount in mg of hydrocortisone) [2]: 10 mg

C[C@]12C=CC(=O)C=C1CC[C@H]1[C@@H]3C[C@@H](O)[C@](O)(C(=O)CO)[C@@]3(C)C[C@H](O)[C@@]12F [Triamcinolone]
Equivalent amount [2]: 4 mg | Hydrocortisone equivalent (1 mg of the glucocorticoid corresponds to the listed amount in mg of hydrocortisone) [2]: 5 mg
